Source: patent publication US20190038588A1, “NOVEL CLASS OF COMPOUNDS FOR THE TREATMENT OF CARDIOVASCULAR DISEASE” (STICHTING KATHOLIEKE UNIVERSITEIT, priority 2016, published 2019)

Assays:
HMG-CoA reductase = biological target: T1, HMG-CoA reductase (Homo sapiens, UniProt P04035); details: Kajinami K, 2003; Istvan ES, 2001; cited from earlier work
T1 sequence (P04035 1-888): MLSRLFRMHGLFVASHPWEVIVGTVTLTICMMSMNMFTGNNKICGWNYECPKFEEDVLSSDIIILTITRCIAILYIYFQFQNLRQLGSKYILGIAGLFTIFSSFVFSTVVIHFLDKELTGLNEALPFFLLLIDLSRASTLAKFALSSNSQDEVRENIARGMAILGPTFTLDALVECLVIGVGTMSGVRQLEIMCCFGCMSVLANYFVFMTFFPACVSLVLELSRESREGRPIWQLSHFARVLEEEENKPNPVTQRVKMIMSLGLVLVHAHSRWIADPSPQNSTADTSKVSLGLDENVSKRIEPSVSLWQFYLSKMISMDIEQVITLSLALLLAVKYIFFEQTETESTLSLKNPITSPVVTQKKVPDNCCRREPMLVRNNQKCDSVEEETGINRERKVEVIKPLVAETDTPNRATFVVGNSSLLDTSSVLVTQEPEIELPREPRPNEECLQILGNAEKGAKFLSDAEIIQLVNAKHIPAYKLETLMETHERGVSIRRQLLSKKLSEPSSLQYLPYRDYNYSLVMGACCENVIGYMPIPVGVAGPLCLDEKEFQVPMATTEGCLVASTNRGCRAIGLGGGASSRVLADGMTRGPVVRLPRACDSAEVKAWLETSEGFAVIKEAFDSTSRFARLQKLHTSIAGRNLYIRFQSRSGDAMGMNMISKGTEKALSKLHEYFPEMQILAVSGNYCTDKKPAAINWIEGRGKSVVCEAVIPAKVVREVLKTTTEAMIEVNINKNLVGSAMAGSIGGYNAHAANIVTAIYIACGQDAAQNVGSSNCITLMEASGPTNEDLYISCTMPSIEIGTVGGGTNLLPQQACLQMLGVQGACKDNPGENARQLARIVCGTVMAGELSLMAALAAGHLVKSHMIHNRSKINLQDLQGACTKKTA

[1] = biological target: T2, mitochondrial complex III (Mus musculus, UniProt P00158); assay: Complex III enzyme activity in mitochondrial fractions of C2C12 cells (cytochrome c reduction at 550 nm); type: biochemical; details: compound at 100 μM; background by antimycin A (2.5 μM); n = 3 independent experiments
T2 construct: the supernatant containing the mitochondria was pelleted at 14,000 g; endogenous in cells; host or cells: C2C12 cells, mitochondrial fraction
Method: C2C12 pellets of 20·10^6 cells were snap frozen in liquid nitrogen and kept at −80° C. until use. For preparation of the mitochondrial fractions, tissues and cells were homogenized, resuspended in 10 mM Tris-HCl (pH 7.6), and snap frozen in aliquots as follows: cells were resuspended in 10 mM Tris-HCl and pottered, and sucrose was added (215 mM). The lysate was cleared of unbroken cells by centrifugation (10 minutes 600 g) after which the supernatant containing the mitochondria was pelleted at 14,000 g for 10 minutes, resuspended in 10 mM Tris-HCl (pH 7.6), and snap frozen in aliquots. Complex III enzyme activity was measured spectrophotometrically in duplicate as described before by determination of the cytochrome c reduction at 550 nm (Janssen et al., 2007; Mourmans et al., 1997; Rodenburg, 2011). For these measurements the following substrates were used: decylubiquinol (300 μM) and cytochrome c (50 μM). Background substraction was based on decylubiquinol auto-oxidation rates for FIG. 2, and on antimycin A (2.5 μM) for table 4. The enzyme activity was determined using the linear domain of the curve. These experiments were generally performed in small reaction volumes to increase throughput. Experiments in larger reaction volumes can improve reliability of obtained values, and are planned.

[2] = biological target: T3, catalytic domain of the human HMG-CoA reductase (Homo sapiens, UniProt P04035); assay: HMG-CoA reductase activity and inhibition assay (Sigma CS-1090 kit, NADPH oxidation at 340 nm); type: biochemical; details: for HMGR activity (% of control) Mean (SEM): compound at 300 nM, n = 3 independent experiments
T3 construct: containing the catalytic domain of the human HMG-CoA reductase; purchased Sigma-Aldrich CS-1090
T3 sequence (P04035 426-888 limits assumed): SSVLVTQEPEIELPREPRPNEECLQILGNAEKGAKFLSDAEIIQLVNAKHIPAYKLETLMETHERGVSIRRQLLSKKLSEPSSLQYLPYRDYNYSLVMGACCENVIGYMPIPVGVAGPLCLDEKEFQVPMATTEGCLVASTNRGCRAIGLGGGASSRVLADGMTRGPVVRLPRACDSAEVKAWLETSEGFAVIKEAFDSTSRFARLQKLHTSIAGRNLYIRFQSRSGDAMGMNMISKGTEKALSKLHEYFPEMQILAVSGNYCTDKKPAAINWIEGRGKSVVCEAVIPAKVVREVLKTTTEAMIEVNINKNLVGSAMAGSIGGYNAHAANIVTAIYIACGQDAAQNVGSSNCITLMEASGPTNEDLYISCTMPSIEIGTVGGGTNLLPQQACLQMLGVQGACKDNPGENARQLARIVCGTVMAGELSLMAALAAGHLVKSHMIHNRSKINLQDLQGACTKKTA
Method: The human HMG-CoA reductase activity and inhibition assays were performed using the HMG-CoA reductase Assay Kit from Sigma-Aldrich (Sigma CS-1090), containing the catalytic domain of the human HMG-CoA reductase. Enzyme activity was determined spectrophotometrically, measuring the oxidation of NADPH at 340 nm. The reaction mixture contained: 0.13 mM HMG-CoA, HMG-CoA reductase, and 50 mM Tris-HCl, (pH 7.5). After 15 min incubation at 37° C., the reaction was started with the addition of 0.13 mM NADPH, and monitored for 30 min. The enzyme activity was determined using the linear domain of the curve. These experiments were generally performed in small reaction volumes to increase throughput. Experiments in larger reaction volumes can improve reliability of obtained values, and are planned.

Row | SMILES | IC50 (HMG-CoA reductase) [nM] | complex III activity (% of control) Mean (SEM) [1] | HMGR activity (% of control) Mean (SEM) [2] | IC50 ([2]; dose-response curve of FIG. 2C, 95%-CI printed in the row below) [nM]
1 | O=C(O)C[C@H](O)C[C@H](O)/C=C/c1c(C2CC2)nc2ccccc2c1-c1ccc(F)cc1 [pitavastatine] | 7 | – | – | –
2 | CC(C)c1nc(N(C)S(C)(=O)=O)nc(-c2ccc(F)cc2)c1/C=C/[C@@H](O)C[C@@H](O)Cc1nc(=O)o[nH]1 [rosuvastatin oxo-oxadiazole, N-(5-((3S,5S,E)-3,5-dihydroxy-6-(5-oxo-2,5-dihydro-1,2,4-oxadiazol-3-yl)hex-1-en-1-yl)-4-(4-fluorophenyl)-6-isopropylpyrimidin-2-yl)-N-methylmethane Sulfonamide] | – | 85.85 (10.62) % of control | 88.17 (4.21) % of control | –
3 | CC(C)c1nc(N(C)S(C)(=O)=O)nc(-c2ccc(F)cc2)c1/C=C/[C@@H](O)C[C@@H](O)Cc1nnn[nH]1 [rosuvastatin tetrazole, N-(5-((3S,5S,E)-3,5-dihydroxy-6-(1H-tetrazol-5-yl)hex-1-en-1-yl)-4-(4-fluorophenyl)-6-isopropylpyrimidin-2-yl)-N-methylmethanesulfonamide] | – | 85.24 (4.09) % of control | 81.28 (4.70) % of control | –
4 | CCC(C)(C)C(=O)O[C@H]1C[C@@H](C)C=C2C=C[C@H](C)[C@H](CC[C@@H](O)C[C@@H](O)CC(N)=O)[C@H]21 [simvastatin amide, (1S,3R,7S,8S,8aR)-8-((3R,5R)-7-amino-3,5-dihydroxy-7-oxoheptyl)-3,7-dimethyl-1,2,3,7,8,8a-hexahydronaphthalen-1-yl 2,2-dimethylbutanoate] | – | 73.77 (7.57) % of control | 110.10 (11.81) % of control | –
5 | CCC(C)(C)C(=O)O[C@H]1C[C@@H](C)C=C2C=C[C@H](C)[C@H](CC[C@@H](O)C[C@@H](O)CC(=O)NO)[C@H]21 [simvastatin hydroxamic acid, (1S,3R,7S,8S,8aR)-8-((3R,5R)-3,5-dihydroxy-7-(hydroxyamino)-7-oxoheptyl)-3,7-dimethyl-1,2,3,7,8,8a-hexahydronaphthalen-1-yl 2,2-dimethylbutanoate] | – | 68.59 (5.73) % of control | 38.83 (5.19) % of control | 39
6 | CCC(C)(C)C(=O)O[C@H]1C[C@@H](C)C=C2C=C[C@H](C)[C@H](CC[C@@H](O)C[C@@H](O)CC(=O)NC)[C@H]21 [simvastatin methylamide, (1S,3R,7S,8S,8aR)-8-((3R,5R)-3,5-dihydroxy-7-(methylamino)-7-oxoheptyl)-3,7-dimethyl-1,2,3,7,8,8a-hexahydronaphthalen-1-yl 2,2-dimethylbutanoate] | – | 50.43 (5.71) % of control | 92.40 (8.84) % of control | –
7 | CCC(C)(C)C(=O)O[C@H]1C[C@@H](C)C=C2C=C[C@H](C)[C@H](CC[C@@H](O)C[C@@H](O)CC#N)[C@H]21 [simvastatin nitrile, (1S,3R,7S,8S,8aR)-8-((3R,5S)-6-cyano-3,5-dihydroxyhexyl)-3,7-dimethyl-1,2,3,7,8,8a-hexahydronaphthalen-1-yl 2,2-dimethylbutanoate] | – | 53.24 (1.53) % of control | 85.05 (10.36) % of control | –
8 | CCC(C)(C)C(=O)O[C@H]1C[C@@H](C)C=C2C=C[C@H](C)[C@H](CC[C@@H](O)C[C@@H](O)Cc3nc(=O)o[nH]3)[C@H]21 [simvastatin oxo-oxadiazole, (1S,3R,7S,8S,8aR)-8-((3R,5)-3,5-dihydroxy-6-(5-oxo-2,5-dihydro-1,2,4-oxadiazol-3-yl)hexyl)-3,7-dimethyl-1,2,3,7,8,8a-hexahydronaphthalen-1-yl 2,2-dimethylbutanoate] | – | 74.37 (4.20) % of control | 73.44 (2.81) % of control | –
9 | CCC(C)(C)C(=O)O[C@H]1C[C@@H](C)C=C2C=C[C@H](C)[C@H](CC[C@@H](O)C[C@@H](O)Cc3nnn[nH]3)[C@H]21 [simvastatin tetrazole, (1S,3R,7S,8S,8aR)-8-((3R,5S)-3,5-dihydroxy-6-(1H-tetrazol-5-yl)hexyl)-3,7-dimethyl-1,2,3,7,8,8a-hexahydronaphthalen-1-yl 2,2-dimethylbutanoate] | – | 80.37 (5.13) % of control | 72.43 (4.97) % of control | –
